# Measured values as given in the OPERA property sets (Mansouri et al. 2018).
# Settings: for log10 BCF / log10 biotransformation half-life (days): fish
Compound,melting point [°C],boiling point [°C],further results
O=C1OCCN1/N=C/c1ccc([N+](=O)[O-])o1,255,,
CNC(=O)N(C)c1nc2ccccc2s1,120,,log10 Koc (L/kg): 2.8; log10 vapour pressure (mmHg): -6.95
NS(=O)(=O)c1ccc(S(=O)(=O)CCCO)cc1,150,,
O=C(CCl)C(Cl)Cl,,172,
O=C(O)C(F)(F)C(F)(F)C(F)(F)C(F)(F)C(F)(F)C(F)(F)C(F)(F)C(F)(F)C(F)(F)C(F)(F)C(F)(F)C(F)(F)C(F)(F)F,,,ready biodegradability: not readily biodegradable
CCCF,-159,2.5,log10 vapour pressure (mmHg): 3.3
c1ccc(C2CCCCC2)cc1,7.3,240,log10 vapour pressure (mmHg): -1.4
O=C(O)C(O)C(=O)O,157,,
CCc1ccc(-c2ccccc2)cc1,,,ready biodegradability: not readily biodegradable; log10 BCF: 2.82; log10 biotransformation half-life (days): 0.06
O=C(O)c1ccccc1O,158,,log10 Koa: 7.44; log10 vapour pressure (mmHg): -4.09; ready biodegradability: readily biodegradable
N#CCCCBr,,206,
CCOC(=O)c1ncn2c1CN(C)C(=O)c1cc(F)ccc1-2,202,,
COc1ccccc1C1CCCCC1,,268,
CCN(CC)C(=O)N1CCN(C)CC1,48,,
CCCCOCCOP(=O)(OCCOCCCC)OCCOCCCC,-70,,ready biodegradability: not readily biodegradable; log10 BCF: 0.76
Nc1ccc(S(=O)(=O)Nc2ccccc2)cc1,200,,
CC1CCC(C)(C)C1 (centres undefined),-142,105,log10 vapour pressure (mmHg): 1.05
CC(CCc1ccccc1)NC(C)C(O)c1cc(I)c(O)c(I)c1 (centres undefined),212,,
CCC(C)C#N (centres undefined),,125,
Nc1c(Cl)c(Cl)cc(Cl)c1Cl,107,,log10 Koc (L/kg): 3.94; log10 BCF: 2.52
CCOC(=O)CCCC(C)=O,,222,
CCC(C)NC(C)CC (centres undefined),,135,ready biodegradability: not readily biodegradable
CCCCCCCCCCCCCCCCCCCCCCCCCCCCCCCCCCCCCC,,512,ready biodegradability: readily biodegradable
CCN(CC)CCCN(c1ccccc1)C1Cc2ccccc2C1,120,,
CC(=O)OCCl,,116,
O=C(OC[C@H]1O[C@@H](O)[C@H](O)[C@@H](O)[C@@H]1O)c1ccccc1,121,,
C=Cc1cccc(C=C)c1,-52.3,,log10 vapour pressure (mmHg): -0.237; ready biodegradability: not readily biodegradable; log10 BCF: 2.54; log10 biotransformation half-life (days): 0.59

Compound,melting point [°C],boiling point [°C],further results
C[C@H]1CC=CCC1,-116,103,
CB(C)Cl,,4.9,
Nc1ccc2c(O)cc(S(=O)(=O)O)cc2c1,,,ready biodegradability: not readily biodegradable; log10 BCF: 0.38
CC1=NNC(=O)C1,221,,
CC1CCSC1 (centres undefined),,139,
FC(F)(F)C(F)(F)N(C(F)(F)C(F)(F)F)C(F)(F)C(F)(F)F,-110,70.3,
CO[C@H](C(=O)[C@@H](O)[C@@H](C)O)C1Cc2cc3cc(O[C@H]4C[C@@H](O[C@H]5C[C@@H](O)[C@H](O)[C@@H](C)O5)[C@@H](O)[C@@H](C)O4)c(C)c(O)c3c(O)c2C(=O)[C@H]1O[C@H]1C[C@@H](O[C@H]2C[C@@H](O[C@H]3C[C@](C)(O)[C@H](O)[C@@H](C)O3)[C@H](O)[C@@H](C)O2)[C@H](O)[C@@H](C)O1 (some centres undefined),182,,
ClC1=C(Cl)C2(Cl)C3C(Cl)C=CC3C1(Cl)C2(Cl)Cl (centres undefined),95.5,310,log10 Henry constant (atm·m³/mol): -3.53; log10 Koa: 7.64; log10 Koc (L/kg): 4.38; log10 vapour pressure (mmHg): -3.4; ready biodegradability: not readily biodegradable; log10 BCF: 3.94; log10 biotransformation half-life (days): 1.45
O=C(O)Cc1cc(I)c(Oc2ccc(O)c(I)c2)c(I)c1,182,,
CCN1CCCC1,,104,
CC(C)C(=O)OC1CCCCC1,,204,
CC(=O)Nc1ccc(Br)cc1,,,log10 Koc (L/kg): 1.95
CCOCC(=O)Cl,,125,
CCC(N)CC,,89,
Clc1ccc(Oc2c(Cl)cccc2Cl)cc1,,,log10 vapour pressure (mmHg): -3.66
CCOC(=O)Nc1ccc(NCc2ccc(F)cc2)nc1N,116,,
CC(C)=C1OC(=O)N(c2cc(OC3CCCC3)c(Cl)cc2F)C1=O,104,,
Cc1cc(C)c2ccccc2c1,,,log10 biotransformation half-life (days): 0.51
Cc1cc2nc3c(=O)[nH]c(=O)nc-3n(C)c2cc1C,320,,
Clc1cc(Cl)c(Oc2cc(Cl)c(Cl)cc2Cl)cc1Cl,,,log10 biotransformation half-life (days): 1.98
CC(=O)Nc1ccc2c(c1)Cc1cc([N+](=O)[O-])ccc1-2,262,,
O=c1ccc(=O)[nH][nH]1,306,,log10 Koc (L/kg): 0.45; ready biodegradability: readily biodegradable
CCOc1ccccc1[N+](=O)[O-],2.2,267,
Cc1c(-c2ccccc2)[nH]c2ccccc12,91.5,,
Clc1ccc(-c2c(Cl)ccc(Cl)c2Cl)cc1Cl,,,log10 Koa: 9.06; log10 biotransformation half-life (days): 2.63
CCC(C)C(C)(COC(N)=O)COC(N)=O (centres undefined),77,,
CCC(C(=O)OC)c1ccccc1 (centres undefined),77.5,228,

Compound,melting point [°C],boiling point [°C],further results
CN(C)C(=O)Nc1ccc(Cl)cc1,170,,log10 Koc (L/kg): 1.95; log10 vapour pressure (mmHg): -6.3
COC(=O)[C@]12OC[C@]34[C@H]([C@@H](O)[C@@H]1O)[C@@]1(C)CC(=O)C(O)=C(C)[C@@H]1C[C@H]3OC(=O)[C@H](OC(=O)/C=C(\C)C(C)C)[C@@H]24,226,,
CC(C)(C)c1ccc(O)cc1,,,ready biodegradability: not readily biodegradable; log10 BCF: 1.83; log10 biotransformation half-life (days): -0.87
CCC(C)c1cc([N+](=O)[O-])cc([N+](=O)[O-])c1OC(=O)C=C(C)C (centres undefined),70,,log10 vapour pressure (mmHg): -6.5
CN1C(=O)C(=O)c2ccccc21,132,,
CC(CO)N(C)C (centres undefined),,150,
OCCCBr,,,log10 vapour pressure (mmHg): -1
CC(Cl)=CCCl,,131,
COC(=O)c1ccccc1OC(C)=O,51.5,,
CCOC(CCl)OCC,,157,
NC(Cc1cc(Br)c(O)c(Br)c1)C(=O)O (stereo in doubt),245,,
O=C(Cl)CCc1ccccc1,-2,,
C#CCCCCC,-81,99.7,log10 vapour pressure (mmHg): 1.72
C=C(Cl)C#N,-65,88.5,
N#CCC(=O)NN,114,,
COC(=O)C(C)N(C(=O)Cc1ccccc1)c1c(C)cccc1C (centres undefined),79,,log10 Koc (L/kg): 3.54; log10 vapour pressure (mmHg): -5
C[C@@H]1CC[C@@]2(OC1)O[C@H]1C[C@H]3[C@@H]4CC[C@H]5C[C@@H](O)CC[C@]5(C)[C@H]4CC[C@]3(C)[C@H]1[C@@H]2C,197,,
COc1cc(C)cc(OC)c1,,244,
CC(C)(C)OOC(C)(C)CCC(C)(C)OOC(C)(C)C,8,,ready biodegradability: not readily biodegradable; log10 BCF: 3.48; log10 biotransformation half-life (days): 0.77
CCCC(C)(C)CCC,,135,
Cc1ccccc1OP(=O)(Oc1ccccc1C)Oc1ccccc1C,,,ready biodegradability: readily biodegradable; log10 biotransformation half-life (days): 0.5
CCC(C)c1ccccc1OC(=O)NC (centres undefined),31.5,,log10 Koc (L/kg): 1.71; log10 vapour pressure (mmHg): -3.85; ready biodegradability: not readily biodegradable; log10 BCF: 1.41; log10 biotransformation half-life (days): -0.52
CC(O)CC(F)(F)F (centres undefined),,99.8,
CC(C)(C)[C@@H](O)[C@H](Cc1ccc(Cl)cc1Cl)n1cncn1,148,,
C=Cc1ccc(Br)cc1,7.7,212,log10 vapour pressure (mmHg): -0.108
